Results from ChEMBL document CHEMBL1140714, “In search of novel agents for therapy of tropical diseases and human immunodeficiency virus” (J Med Chem, 2008).
Calls of active or inactive are those of the source. No cut-off for these calls is given here.

system: Staphylococcus aureus; experiment: Antibacterial activity against Staphylococcus aureus assessed as inhibition of biofilm formation; assay type: functional, organism-based; details: not given

| SMILES | Activity |
| --- | --- |
| CC[C@@H]1CC2(C[C@H](CC)N1)C(=O)N(CCCc1ccccc1)C(=O)N2c1ccccc1 (stereo not given in full) | inactive |
| COC(=O)C1C(=O)C(C(=O)OC)[C@H](c2ccccn2)N(CCO)[C@@H]1c1ccccn1 (stereo not given in full) | inactive |
| COC(=O)C1C(=O)C(C(=O)OC)[C@H](c2cccc([N+](=O)[O-])c2)N(Cc2ccc(OC)cc2)[C@@H]1c1cccc([N+](=O)[O-])c1 (stereo not given in full) | inactive |
| O/N=C/C1CCN(CCCc2ccccc2)CC1 | inactive |
| CCCC[C@@H]1CC2(C[C@H](CCCC)N1)C(=O)NC(=O)N2c1ccccc1 (stereo not given in full) | inactive |
| C=CCN1[C@H](c2ccc([N+](=O)[O-])cc2)C(C(=O)OC)C(=O)C(C(=O)OC)[C@@H]1c1ccc([N+](=O)[O-])cc1 (stereo not given in full) | inactive |
| Clc1cccc(Cl)c1CON=C1CCN(CCCc2ccccc2)CC1 | inactive |
| C[C@@H]1CC2(C[C@H](C)N1)C(=O)N(Cc1ccc([N+](=O)[O-])cc1)C(=O)N2Cc1ccccc1 (stereo not given in full) | inactive |
| C=CCN1[C@H](c2ccccn2)C(C(=O)OC)C(=O)C(C(=O)OC)[C@@H]1c1ccccn1 (stereo not given in full) | inactive |
| C=CCN1[C@H](c2ccccc2)C(C(=O)OC)C(=O)C(C(=O)OC)[C@@H]1c1ccccc1 (stereo not given in full) | inactive |
| ON=C1CCN(CCCc2ccccc2)CC1 | inactive |

system: Plasmodium falciparum; experiment: Antiplasmodial activity against Plasmodium falciparum NF54 after 72 hrs; assay type: functional, organism-based; details: NF54, 72 h

| IC50 [µM] | SMILES |
| --- | --- |
| 14.6 | C[C@@H]1CC2(C[C@H](C)N1)C(=O)N(Cc1ccc([N+](=O)[O-])cc1)C(=O)N2Cc1ccccc1 (stereo not given in full) |

system: Trypanosoma brucei brucei; experiment: Antitrypanosomal activity against Trypanosoma brucei brucei TC221; assay type: functional; details: read-out: ED50 (the source's name)

| SMILES | EC50 [µM] |
| --- | --- |
| CCCC[C@@H]1CC2(C[C@H](CCCC)N1)C(=O)NC(=O)N2c1ccccc1 (stereo not given in full) | 24.4 |
| C=CCN1[C@H](c2ccc([N+](=O)[O-])cc2)C(C(=O)OC)C(=O)C(C(=O)OC)[C@@H]1c1ccc([N+](=O)[O-])cc1 (stereo not given in full) | 2.41 |
| C[C@@H]1CC2(C[C@H](C)N1)C(=O)N(Cc1ccc([N+](=O)[O-])cc1)C(=O)N2Cc1ccccc1 (stereo not given in full) | 3.74 |

Second part, the compound after the results:

| EC50 [µM] | SMILES |
| --- | --- |
| 13.4 | CC[C@@H]1CC2(C[C@H](CC)N1)C(=O)N(CCCc1ccccc1)C(=O)N2c1ccccc1 (stereo not given in full) |
| > 100 | O/N=C/C1CCN(CCCc2ccccc2)CC1 |
| > 100 | Clc1cccc(Cl)c1CON=C1CCN(CCCc2ccccc2)CC1 |

system: Leishmania major; experiment: Antileishmanial activity against Leishmania major MHOM/IL/81/FE/BNI infected in BALB/c mouse; assay type: functional; details: not given

| SMILES | ED50 [µM] |
| --- | --- |
| CC[C@@H]1CC2(C[C@H](CC)N1)C(=O)N(CCCc1ccccc1)C(=O)N2c1ccccc1 (stereo not given in full) | >100 |
| COC(=O)C1C(=O)C(C(=O)OC)[C@H](c2ccccn2)N(CCO)[C@@H]1c1ccccn1 (stereo not given in full) | >100 |
| COC(=O)C1C(=O)C(C(=O)OC)[C@H](c2cccc([N+](=O)[O-])c2)N(Cc2ccc(OC)cc2)[C@@H]1c1cccc([N+](=O)[O-])c1 (stereo not given in full) | >100 |
| O/N=C/C1CCN(CCCc2ccccc2)CC1 | >100 |
| CCCC[C@@H]1CC2(C[C@H](CCCC)N1)C(=O)NC(=O)N2c1ccccc1 (stereo not given in full) | >100 |
| C=CCN1[C@H](c2ccc([N+](=O)[O-])cc2)C(C(=O)OC)C(=O)C(C(=O)OC)[C@@H]1c1ccc([N+](=O)[O-])cc1 (stereo not given in full) | >100 |
| Clc1cccc(Cl)c1CON=C1CCN(CCCc2ccccc2)CC1 | >100 |
| C[C@@H]1CC2(C[C@H](C)N1)C(=O)N(Cc1ccc([N+](=O)[O-])cc1)C(=O)N2Cc1ccccc1 (stereo not given in full) | >100 |
| C=CCN1[C@H](c2ccccn2)C(C(=O)OC)C(=O)C(C(=O)OC)[C@@H]1c1ccccn1 (stereo not given in full) | >100 |

system: not listed separately; experiment: Cytotoxicity against mouse J774.1 cells after 48 hrs; assay type: cell-based; details: read-out: ED50

| SMILES | CC50 at 48 h [µM] |
| --- | --- |
| CC[C@@H]1CC2(C[C@H](CC)N1)C(=O)N(CCCc1ccccc1)C(=O)N2c1ccccc1 (stereo not given in full) | > 100 |
| COC(=O)C1C(=O)C(C(=O)OC)[C@H](c2ccccn2)N(CCO)[C@@H]1c1ccccn1 (stereo not given in full) | 31.2 |
| COC(=O)C1C(=O)C(C(=O)OC)[C@H](c2cccc([N+](=O)[O-])c2)N(Cc2ccc(OC)cc2)[C@@H]1c1cccc([N+](=O)[O-])c1 (stereo not given in full) | > 100 |
| O/N=C/C1CCN(CCCc2ccccc2)CC1 | > 100 |
| C=CCN1[C@H](c2ccc([N+](=O)[O-])cc2)C(C(=O)OC)C(=O)C(C(=O)OC)[C@@H]1c1ccc([N+](=O)[O-])cc1 (stereo not given in full) | 50.3 |
| Clc1cccc(Cl)c1CON=C1CCN(CCCc2ccccc2)CC1 | > 100 |
| C[C@@H]1CC2(C[C@H](C)N1)C(=O)N(Cc1ccc([N+](=O)[O-])cc1)C(=O)N2Cc1ccccc1 (stereo not given in full) | 42.4 |
| C=CCN1[C@H](c2ccccn2)C(C(=O)OC)C(=O)C(C(=O)OC)[C@@H]1c1ccccn1 (stereo not given in full) | > 100 |
| C=CCN1[C@H](c2ccccc2)C(C(=O)OC)C(=O)C(C(=O)OC)[C@@H]1c1ccccc1 (stereo not given in full) | > 100 |

system: Plasmodium falciparum; experiment: Antiplasmodial activity against chloroquine-sensitive Plasmodium falciparum; assay type: functional, organism-based; details: not given

| IC50 | SMILES |
| --- | --- |
| Not Active | CC[C@@H]1CC2(C[C@H](CC)N1)C(=O)N(CCCc1ccccc1)C(=O)N2c1ccccc1 (stereo not given in full) |
| Not Active | COC(=O)C1C(=O)C(C(=O)OC)[C@H](c2ccccn2)N(CCO)[C@@H]1c1ccccn1 (stereo not given in full) |
| Not Active | CCCC[C@@H]1CC2(C[C@H](CCCC)N1)C(=O)NC(=O)N2c1ccccc1 (stereo not given in full) |
| Not Active | C=CCN1[C@H](c2ccc([N+](=O)[O-])cc2)C(C(=O)OC)C(=O)C(C(=O)OC)[C@@H]1c1ccc([N+](=O)[O-])cc1 (stereo not given in full) |
| Not Active | C=CCN1[C@H](c2ccccn2)C(C(=O)OC)C(=O)C(C(=O)OC)[C@@H]1c1ccccn1 (stereo not given in full) |
| Not Active | C=CCN1[C@H](c2ccccc2)C(C(=O)OC)C(=O)C(C(=O)OC)[C@@H]1c1ccccc1 (stereo not given in full) |

| SMILES | IC50 |
| --- | --- |
| COC(=O)C1C(=O)C(C(=O)OC)[C@H](c2cccc([N+](=O)[O-])c2)N(Cc2ccc(OC)cc2)[C@@H]1c1cccc([N+](=O)[O-])c1 (stereo not given in full) | Not Active |

same assay, conditions: Plasmodium falciparum; read-out: IC50

| IC50 [µM] | SMILES |
| --- | --- |
| 31 | Clc1cccc(Cl)c1CON=C1CCN(CCCc2ccccc2)CC1 |
| 26 | ON=C1CCN(CCCc2ccccc2)CC1 |
